In brackets after ≈: the same amount, converted by molar mass. Starred links: 1 amine or outer side, 2 acyl side, 3 side chain; linkers in the order of their positions; H or OH if unused. Non-standard residues stand in square brackets, D forms with d. Residues, ends and D or L forms follow the SMILES beside them. *: point of attachment. Ethylenediamine = C(CN[*:2])N[*:1]; Lauroyl = CCCCCCCCCCCC(=O)*; Octanoyl = CCCCCCCC(=O)*
Columns and labels:
Format in all cases: cell-based
[1] = tested on: Staphylococcus epidermidis ATCC 12228; assay: MIC, NCCLS M7-A6 broth microdilution (Table 9, no superscript); conditions: ATCC 12228
How it was run: (§1)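 Values come from a broth microdilution assay run in cation-adjusted Mueller Hinton broth with an inoculum of 5×10^5 to 1×10^6 CFU/milliliter, incubated overnight at 37° C and read as absence of visible turbidity.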

[2] = tested on: Escherichia coli ATCC 25922; assay: as above; conditions: ATCC 25922
How it was run: as §1

[3] = tested on: Pseudomonas aeruginosa ATCC 27853; assay: as above; conditions: ATCC 27853
How it was run: as §1

[4] = tested on: Salmonella dublin (Lane); assay: as above
How it was run: as §1

[5] = tested on: Staphylococcus aureus ATCC 29213; assay: MIC, NCCLS M7-A6 broth microdilution, cation-adjusted Mueller Hinton broth (Table 9, no superscript); conditions: ATCC 29213
How it was run: as §1

[6] = tested on: Candida albicans ATCC 18804; assay: MIC in yeasts, NCCLS M27-A2 broth microdilution, RPMI 1640 (Table 9, letter e); conditions: ATCC 18804
Experimental: Briefly, RPMI 1640 supplemented with glutamine and phenol red as a pH indicator was used in the broth microdilution method. A 96-well plate was inoculated so that the final inoculum of yeast for each well contained between 0.5×10^3 and 2.5×10^3 CFU/milliliter. […] Plates were incubated for 24 to 48 hours at 37° C. The lowest concentration of peptide that contained no visible growth was determined as the MIC. MIC values that utilized this method of MIC determination are indicated in Table 9 with a subscript letter “e.” “Peptide Number” corresponds to peptide compositions and corresponding designations in Table 3.

[7] = tested on: Propionibacterium acnes ATCC 6919; assay: MIC, agar dilution method NCCLS M11-A6, Brucella agar, anaerobic (Table 9, superscript c); conditions: ATCC 6919
How it was run: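 MIC taken as the lowest peptide level giving no colonies on the plate. Plates were inoculated to 1.5×10^8 CFU/milliliter, then kept anaerobically at 37° C. for 48-96 hours; method follows NCCLS M11-A6.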

Compound	MIC S. epidermidis [1]	MIC E. coli [2]	MIC P. aeruginosa [3]	MIC S. dublin [4]	MIC S. aureus [5]	MIC C. albicans [6]	MIC P. acnes [7]
CCCCCCCC(=O)NCCNC(=O)[C@H](CCCNC(=N)N)NC(=O)[C@H](CCSC)NC(=O)[C@H](Cc1ccccc1)NC(=O)[C@H](CC(N)=O)NC(=O)[C@H](CCCNC(=N)N)NC(=O)[C@H](C)NC(=O)[C@@H](NC(=O)[C@H](CC(=O)O)NC(=O)[C@H](CCCNC(=N)N)NC(=O)[C@H](Cc1c[nH]c2ccccc12)NC(=O)[C@H](CCCNC(=N)N)NC(=O)[C@H](CO)NC(=O)[C@@H](N)CCCNC(=N)N)C(C)C [Peptide 174, H2N-RSRWRDVARNFMR-Ethylamidooctanyl] (H-RSRWRDVARNFMR-{Ethylenediamine-Octanoyl}; C-terminus assumed)	1 µg/mL (≈ 0.521 µM)	2 µg/mL (≈ 1.04 µM)	4 µg/mL (≈ 2.09 µM)	16 µg/mL (≈ 8.34 µM)	8 µg/mL (≈ 4.17 µM)	32e ug/mL	64c ug/mL
CCCCCCCCCCCC(=O)N[C@@H](CCCNC(=N)N)C(=O)N[C@@H](CO)C(=O)N[C@@H](CCCNC(=N)N)C(=O)N[C@@H](Cc1c[nH]c2ccccc12)C(=O)N[C@@H](CCCNC(=N)N)C(=O)N[C@@H](CC(=O)O)C(=O)N[C@H](C(=O)N[C@@H](C)C(N)=O)C(C)C [Peptide 102, Lauryl-RSRWRDVA-NH2] (Lauroyl-RSRWRDVA-NH2)	8 µg/mL (≈ 6.52 µM)	>64 µg/mL	64 µg/mL (≈ 52.2 µM)	>64 µg/mL	4 µg/mL (≈ 3.26 µM)	64e ug/mL	>64c ug/mL
CCCCCCCCCCCC(=O)N[C@@H](CCCNC(=N)N)C(=O)N[C@@H](CO)C(=O)N[C@@H](CCCNC(=N)N)C(=O)N[C@@H](Cc1c[nH]c2ccccc12)C(=O)N[C@@H](CCCNC(=N)N)C(=O)N[C@@H](CC(=O)O)C(=O)N[C@H](C(=O)N[C@@H](C)C(=O)N[C@@H](CCCNC(=N)N)C(=O)N[C@@H](CC(N)=O)C(=O)N[C@@H](Cc1ccccc1)C(=O)N[C@@H](CCSC)C(=O)N[C@@H](CCCNC(=N)N)C(=O)N[C@@H](Cc1c[nH]c2ccccc12)C(N)=O)C(C)C [Peptide 141, Lauryl-RSRWRDVARNFMRW-NH2] (Lauroyl-RSRWRDVARNFMRW-NH2)	4 µg/mL (≈ 1.89 µM)	16 µg/mL (≈ 7.56 µM)	>64 µg/mL	16 µg/mL (≈ 7.56 µM)	16 µg/mL (≈ 7.56 µM)	2e ug/mL	32c ug/mL
CCCCCCCCCCCC(=O)N[C@H](CCCNC(=N)N)C(=O)N[C@H](CO)C(=O)N[C@H](CCCNC(=N)N)C(=O)N[C@H](Cc1c[nH]c2ccccc12)C(=O)N[C@H](CCCNC(=N)N)C(=O)N[C@H](CC(=O)O)C(=O)N[C@H](CC(C)C)C(=O)N[C@H](CC(C)C)C(=O)N[C@H](CCCNC(=N)N)C(=O)N[C@H](CC(N)=O)C(=O)N[C@H](CC(C)C)C(=O)N[C@H](CCSC)C(=O)N[C@H](CCCNC(=N)N)C(N)=O [Peptide 133, Lauryl-rsrwrdllrnlmr-NH2] (Lauroyl-[dR][dS][dR][dW][dR][dD][dL][dL][dR][dN][dL][dM][dR]-NH2)	2 µg/mL (≈ 1.02 µM)	16 µg/mL (≈ 8.19 µM)	32 µg/mL (≈ 16.4 µM)	8 µg/mL (≈ 4.1 µM)	4 µg/mL (≈ 2.05 µM)	2e ug/mL	2c ug/mL
CCCCCCCCCCCC(=O)N[C@@H](CO)C(=O)N[C@@H](CCCNC(=N)N)C(=O)N[C@@H](Cc1c[nH]c2ccccc12)C(=O)N[C@@H](CCCNC(=N)N)C(=O)N[C@@H](CC(=O)O)C(=O)N[C@H](C(=O)N[C@@H](C)C(N)=O)C(C)C [Peptide 104, Lauryl-SRWRDVA-NH2] (Lauroyl-SRWRDVA-NH2)	>64 µg/mL	>64 µg/mL	>64 µg/mL	>64 µg/mL	4 µg/mL (≈ 3.74 µM)	>64e ug/mL	>64c ug/mL
CCCCCCCCCCCC(=O)N[C@@H](CCCNC(=N)N)C(=O)N[C@@H](CO)C(=O)N[C@@H](CCCNC(=N)N)C(=O)N[C@@H](Cc1c[nH]c2ccccc12)C(=O)N[C@@H](CCCNC(=N)N)C(=O)N[C@@H](CC(=O)O)C(=O)N[C@@H](Cc1c[nH]c2ccccc12)C(=O)N[C@@H](C)C(=O)N[C@@H](CCCNC(=N)N)C(=O)N[C@@H](CC(N)=O)C(=O)N[C@@H](Cc1ccccc1)C(=O)N[C@@H](CCSC)C(=O)N[C@@H](CCCNC(=N)N)C(N)=O [Peptide 140, Lauryl-RSRWRDWARNFMR-NH2] (Lauroyl-RSRWRDWARNFMR-NH2)	2 µg/mL (≈ 0.991 µM)	4 µg/mL (≈ 1.98 µM)	8 µg/mL (≈ 3.96 µM)	4 µg/mL (≈ 1.98 µM)	2 µg/mL (≈ 0.991 µM)	2e ug/mL	16c ug/mL
CCCCCCCCCCCC(=O)N[C@H](CCCNC(=N)N)C(=O)N[C@H](Cc1c[nH]c2ccccc12)C(=O)N[C@H](CCCNC(=N)N)C(=O)N[C@H](CC(=O)O)C(=O)N[C@@H](C(=O)N[C@H](C)C(=O)N[C@H](CCCNC(=N)N)C(=O)N[C@H](CC(N)=O)C(=O)N[C@H](Cc1ccccc1)C(=O)N[C@H](CCSC)C(=O)N[C@H](CCCNC(=N)N)C(N)=O)C(C)C [Peptide 130, Lauryl-rwrdvarnfmr-NH2] (Lauroyl-[dR][dW][dR][dD][dV][dA][dR][dN][dF][dM][dR]-NH2)	2 µg/mL (≈ 1.18 µM)	8 µg/mL (≈ 4.74 µM)	8 µg/mL (≈ 4.74 µM)	16 µg/mL (≈ 9.48 µM)	4 µg/mL (≈ 2.37 µM)	16e ug/mL	8c ug/mL
CCCCCCCCCCCC(=O)N[C@@H](CCCNC(=N)N)C(=O)N[C@@H](CO)C(=O)N[C@@H](CCCNC(=N)N)C(=O)N[C@@H](Cc1c[nH]c2ccccc12)C(=O)N[C@@H](CCCNC(=N)N)C(=O)N[C@@H](CC(=O)O)C(=O)N[C@H](C(=O)N[C@@H](C)C(=O)N[C@@H](CCCNC(=N)N)C(=O)N[C@@H](CC(N)=O)C(=O)N[C@@H](Cc1ccccc1)C(=O)N[C@@H](C)C(=O)N[C@@H](CCCNC(=N)N)C(N)=O)C(C)C [Peptide 97, Lauryl-RSRWRDVARNFAR-NH2] (Lauroyl-RSRWRDVARNFAR-NH2)	2 µg/mL (≈ 1.07 µM)	32 µg/mL (≈ 17.1 µM)	32 µg/mL (≈ 17.1 µM)	32 µg/mL (≈ 17.1 µM)	16 µg/mL (≈ 8.55 µM)	8e ug/mL	64c ug/mL
CSCC[C@H](NC(=O)[C@H](Cc1ccccc1)NC(=O)[C@H](CC(N)=O)NC(=O)[C@H](CCCNC(=N)N)NC(=O)[C@H](CO)NC(=O)[C@H](Cc1c[nH]c2ccccc12)NC(=O)[C@H](CC(=O)O)NC(=O)[C@H](CCCNC(=N)N)NC(=O)[C@H](Cc1c[nH]c2ccccc12)NC(=O)[C@H](CCCNC(=N)N)NC(=O)[C@H](CO)NC(=O)[C@H](CCCNC(=N)N)NC(=O)CNC(=O)[C@@H](NC(=O)[C@H](CCCNC(=N)N)NC(=O)[C@H](CO)NC(=O)[C@@H](NC(=O)[C@H](CCCNC(=N)N)NC(=O)[C@@H](NC(=O)[C@H](C)NC(=O)[C@H](C)NC(=O)[C@H](CCCNC(=N)N)NC(=O)[C@H](CCCNC(=N)N)NC(=O)[C@H](CCCNC(=N)N)NC(=O)[C@@H](N)CCCNC(=N)N)[C@@H](C)O)C(C)C)[C@@H](C)O)C(=O)N[C@@H](CCCNC(=N)N)C(=O)N[C@@H](C)C(=O)N[C@@H](C)C(=O)N[C@@H](CCCNC(=N)N)C(=O)N[C@@H](CCCNC(=N)N)C(=O)N[C@@H](CCCNC(=N)N)C(=O)N[C@@H](CCCNC(=N)N)C(N)=O [Peptide 12] (H-RRRRAATRVSRTGRSRWRDWSRNFMRAARRRR-NH2)	–	–	–	32 µg/mL (≈ 7.72 µM)	16 µg/mL (≈ 3.86 µM)	>64e ug/mL	>64c ug/mL
CCCCCCCCCCCC(=O)N[C@@H](CCCNC(=N)N)C(=O)N[C@@H](CO)C(=O)N[C@@H](CCCNC(=N)N)C(=O)N[C@@H](Cc1c[nH]c2ccccc12)C(=O)N[C@@H](CCCNC(=N)N)C(=O)N[C@@H](CC(=O)O)C(=O)N[C@@H](Cc1c[nH]c2ccccc12)C(=O)N[C@@H](CO)C(=O)N[C@@H](CCCNC(=N)N)C(=O)N[C@@H](CC(N)=O)C(=O)N[C@@H](Cc1ccccc1)C(=O)N[C@@H](CCSC)C(=O)N[C@@H](CCCNC(=N)N)C(N)=O [Peptide 87, Lauryl-RSRWRDWSRNFMR-NH2] (Lauroyl-RSRWRDWSRNFMR-NH2)	–	–	–	8 µg/mL (≈ 3.93 µM)	4 µg/mL (≈ 1.97 µM)	16e ug/mL	>64c ug/mL

Source: US20050282755A1, “Compositions having antimicrobial activity and uses thereof” (priority 2004, published 2005)
